Source: publication PMC6582486, “Stapled EGFR peptide reduces inflammatory breast cancer and inhibits additional HER-driven models of cancer” (Journal of Translational Medicine, 2019)
Where a SMILES comes first, the peptide text is derived from it. Bridges are numbered along the chain shown (N, C = ends). [ ]: non-standard residue; d: D form. R8 = C=CCCCCCC[C@@](C)(N)C(=O)O; S5 = C=CCCC[C@](C)(N)C(=O)O

Columns and labels:
[1] = test system: Erlotinib-resistant lung adenocarcinoma PDX TM00784; experiment: Lung cancer PDX mouse model TM00784; format: in vivo
Text: The following PDX mouse models were generated by Jackson Labs (Sacramento, CA): Breast TM01278; Grade 3 invasive ductal carcinoma, primary malignancy; EGFR inactivating R521K mutation; ERBB3 G1288A mutation in kinase domain with unknown effects on activity; increased EGFR/ERBB2/ERBB3. Lung TM00784; Grade 3 lung adenocarcinoma, primary malignancy; EGFR activating L858R mutation; increased EGFR, decreased ERBB2/ERBB3/ERBB4. All animals were maintained as outlined by University of Arizona Institutional Animal Care and Use Committee (IACUC) by the Experimental Mouse Shared Resource (EMSR).
Fig. 3 SAH5-EJ1 inhibits growth and prolongs survival in PDX models of lung cancer. a, b Cell viability assays performed in A549 or EGFR T790M mutated H1975 lung adenocarcinoma cells over 3 days comparing treatment with Sapitinib (blue lines) to SAH5-EJ1 (red lines). Solid lines represent 24 h; dashed lines represent 72 h. Data shown represent mean ± percent difference of assays performed in quadruplicate. c Reduction in tumor burden in Erlotinib-resistant lung cancer PDX mouse model TM00784 with various doses of intravenous SAH5-EJ1. Control represents water as a vehicle control. *p < 0.05 (Control vs 1 µg/g); **p < 0.01 (Control vs 1 µg/g and vs 10 µg/g). d Kaplan–Meier curve of lung PDX mouse model treated with control (blue line) or either 1 or 10 µg/g SAH5-EJ1 (green line and red line, respectively). Data shown represent mean. N = 6 for all groups

[2] = 28-day toxicity study: injection site reactogenicity; format: in vivo, CD-1 mice; details: for Injection site reactogenicity: Animals with Signs: 28-day study
Procedure: Toxicology was performed by IITRI. The study was conducted in compliance with the US Food and Drug Administration (FDA) good laboratory practice (GLP) Regulations (Code of Federal Regulations Title 21 Part 58) to evaluate the toxicokinetics, local tolerability, immunogenicity, and potential toxicity of SAH5-EJ1 following three times per week intravenous (IV) dosing for 28 days in mice. Male and female CD-1 IGS [Crl:CD1(ICR)] mice (135 per sex) were received from Wilmington, MA-based Charles River Laboratories, Inc.’s Kingston facility (Stone Ridge, NY).
Response measured at 6 and 24 hours post-injection.

## CC[C@H](C)[C@H](NC(=O)[C@H](Cc1c[nH]cn1)NC(=O)[C@H](CCCNC(=N)N)NC(=O)[C@H](CCCNC(=N)N)NC(=O)[C@H](CCCNC(=N)N)NC(=O)[C@H](CCSC)NC(=O)[C@H](Cc1ccccc1)NC(=O)[C@H](C)NC(=O)[C@H](CCCNC(=N)N)NC(=O)[C@H](C)NC(=O)[C@H](CCC(N)=O)NC(=O)[C@H](CCCNC(=N)N)NC(=O)[C@H](C)NC(=O)[C@H](C)NC(=O)[C@H](C)NC(=O)[C@H](CCCNC(=N)N)NC(=O)[C@H](C)NC(=O)[C@@H](N)Cc1ccc(O)cc1)C(=O)N[C@H](C(=O)N[C@@H](CCCNC(=N)N)C(=O)N[C@@H](CCCCN)C(=O)N[C@@H](CCCNC(=N)N)C(=O)N[C@]1(C)CCCCCCC=CCCC[C@@](C)(C(=O)N[C@@H](CCCNC(=N)N)C(=O)N[C@@H](CCC(=O)O)C(N)=O)NC(=O)[C@H](CCC(N)=O)NC(=O)[C@H](CC(C)C)NC(=O)[C@H](CC(C)C)NC(=O)[C@H](CCCNC(=N)N)NC(=O)[C@H](CCCNC(=N)N)NC(=O)[C@H](CC(C)C)NC1=O)C(C)C [SAH5-EJ1] (H-YARAAARQARAFMRRRHIVRKR[R8]LRRLLQ[S5]RE-NH2; staple 23-30)
[1]; 1 µg/g (low dose) IV
  survival relative to control-treated mice: 1.7 ×
[1]; 1 µg/g IV, N = 6
  decrease in average tumor burden: > 50%
[1]; 1 or 10 µg/g IV
  toxicity in the model: no detected toxicity
[2]; female, 5 mg/kg, 10 examined
  Edema (animals): 10
  Edema: 0 - Normal, no swelling (animals): 10
  Edema: 1 - Minimal, slight swelling (animals): 5
  Edema: 2 - Mild, defined swelling (animals): 0
  Edema: 3 - Moderate, defined swelling, raised border (animals): 0
  Erythema and Eschar Formation (animals): 10
  Erythema and Eschar: 0 - Normal (animals): 10
  Erythema and Eschar: 1 - Minimal (animals): 4
  Erythema and Eschar: 2 - Mild, bright pink/pale, distinct (animals): 4
  Erythema and Eschar: 3 - Moderate, bright red, distinct (animals): 0
  Erythema and Eschar: 4 - Severe, dark red, pronounced (animals): 1
  Injection site reactogenicity: Animals with Signs: 10
[2]; female, 10 mg/kg, 10 examined
  Edema (animals): 10
  Edema: 0 - Normal, no swelling (animals): 10
  Edema: 1 - Minimal, slight swelling (animals): 10
  Edema: 2 - Mild, defined swelling (animals): 3
  Edema: 3 - Moderate, defined swelling, raised border (animals): 0
  Erythema and Eschar Formation (animals): 10
  Erythema and Eschar: 0 - Normal (animals): 10
  Erythema and Eschar: 1 - Minimal (animals): 10
  Erythema and Eschar: 2 - Mild, bright pink/pale, distinct (animals): 7
  Erythema and Eschar: 3 - Moderate, bright red, distinct (animals): 5
  Erythema and Eschar: 4 - Severe, dark red, pronounced (animals): 2
  Injection site reactogenicity: Animals with Signs: 10
[2]; female, 15 mg/kg, 15 examined
  Edema (animals): 15
  Edema: 0 - Normal, no swelling (animals): 15
  Edema: 1 - Minimal, slight swelling (animals): 14
  Edema: 2 - Mild, defined swelling (animals): 12
  Edema: 3 - Moderate, defined swelling, raised border (animals): 1
  Erythema and Eschar Formation (animals): 15
  Erythema and Eschar: 0 - Normal (animals): 15
  Erythema and Eschar: 1 - Minimal (animals): 10
  Erythema and Eschar: 2 - Mild, bright pink/pale, distinct (animals): 14
  Erythema and Eschar: 3 - Moderate, bright red, distinct (animals): 5
  Erythema and Eschar: 4 - Severe, dark red, pronounced (animals): 6
  Injection site reactogenicity: Animals with Signs: 15
[2]; male, 5 mg/kg, 10 examined
  Edema (animals): 10
  Edema: 0 - Normal, no swelling (animals): 10
  Edema: 1 - Minimal, slight swelling (animals): 7
  Edema: 2 - Mild, defined swelling (animals): 0
  Edema: 3 - Moderate, defined swelling, raised border (animals): 0
  Edema: 4 - Severe, pronounced swelling, raised border (animals): 0
  Erythema and Eschar Formation (animals): 10
  Erythema and Eschar: 0 - Normal (animals): 10
  Erythema and Eschar: 1 - Minimal (animals): 3
  Erythema and Eschar: 2 - Mild, bright pink/pale, distinct (animals): 2
  Erythema and Eschar: 3 - Moderate, bright red, distinct (animals): 0
  Erythema and Eschar: 4 - Severe, dark red, pronounced (animals): 1
  Injection site reactogenicity: Animals with Signs: 10
[2]; male, 10 mg/kg, 10 examined
  Edema (animals): 10
  Edema: 0 - Normal, no swelling (animals): 10
  Edema: 1 - Minimal, slight swelling (animals): 8
  Edema: 2 - Mild, defined swelling (animals): 7
  Edema: 3 - Moderate, defined swelling, raised border (animals): 1
  Edema: 4 - Severe, pronounced swelling, raised border (animals): 1
  Erythema and Eschar Formation (animals): 10
  Erythema and Eschar: 0 - Normal (animals): 10
  Erythema and Eschar: 1 - Minimal (animals): 6
  Erythema and Eschar: 2 - Mild, bright pink/pale, distinct (animals): 8
  Erythema and Eschar: 3 - Moderate, bright red, distinct (animals): 4
  Erythema and Eschar: 4 - Severe, dark red, pronounced (animals): 2
  Injection site reactogenicity: Animals with Signs: 10
[2]; male, 15 mg/kg, 15 examined
  Edema (animals): 15
  Edema: 0 - Normal, no swelling (animals): 15
  Edema: 1 - Minimal, slight swelling (animals): 14
  Edema: 2 - Mild, defined swelling (animals): 14
  Edema: 3 - Moderate, defined swelling, raised border (animals): 7
  Edema: 4 - Severe, pronounced swelling, raised border (animals): 2
  Erythema and Eschar Formation (animals): 15
  Erythema and Eschar: 0 - Normal (animals): 15
  Erythema and Eschar: 1 - Minimal (animals): 11
  Erythema and Eschar: 2 - Mild, bright pink/pale, distinct (animals): 15
  Erythema and Eschar: 3 - Moderate, bright red, distinct (animals): 10
  Erythema and Eschar: 4 - Severe, dark red, pronounced (animals): 6
  Injection site reactogenicity: Animals with Signs: 15
